Test results reported in article PMC6021111, “Murine leukemia virus p12 tethers the capsid-containing pre-integration complex to chromatin by binding directly to host nucleosomes in mitosis” (PLoS Pathogens, 2018).

How the values were obtained:
[1] = tested on: cyclin-dependent kinase 5 (CDK5); set-up: method as in PMID 12534346; conditions: cited from earlier work
[2] = tested on: Glycogen synthase kinase 3 (GSK3); conditions: cited from earlier work
[3] = tested on: H2B precipitation with GST-p12_M63I, 293T cells; assay: Kinase inhibition, H2B pull-down with GST-p12_M63I; assay type: cell-based; conditions: 3.5 h with nocodazole and 10 μM MG132; roscovitine 75 μM, kenpaullone 40 μM; immunoblot
Procedure: (§1) Glycogen synthase kinase 3 (GSK3) and cyclin-dependent kinase 5 (CDK5) were predicted to phosphorylate Mo-MLV p12 on S61, by the NetPhos 3.1 kinase prediction algorithm. […] These drugs were tested in our biochemical assays for their ability to reduce GST-p12_M63I phosphorylation and chromatin association. In our assays, cells transiently-expressing GST-p12_M63I were cultured in media containing nocodazole overnight, prior to the addition of the kinase inhibitors. […] After removal of the drugs, cells were immediately washed and lysed for glutathione-sepharose bead pull-down assays. The eluates from the beads were analysed by SDS-PAGE followed by sequential staining with PQ and SR dyes to quantify the phosphorylation levels of GST-p12_M63I. LiCl treatment had little effect on GST-p12_M63I phosphorylation (Fig 7A, lane 2). […] To correlate GST-p12_M63I phosphorylation with its ability to interact with chromatin, we quantified the amounts of H2B in the pull-down eluates by immunoblotting. […] The short period of kinase inhibition used in our assays, may have limited the effects observed on GST-p12_M63I phosphorylation.
(§2) GST-p12 proteins were expressed in 293T cells from pCAGGS/GST-derived plasmids by transient transfection using Turbofect (Thermo Fisher Scientific). Approximately 24 h after transfection, cells were changed into fresh media containing either 400 ng/ml nocodazole (Sigma) or 2 μg/ml aphidicolin (Sigma) and incubated overnight at 37°C. The synchronisation of the cell cultures after drug treatment was assessed by propidium iodide staining and cell cycle phase analysis by flow cytometry. Cells to be used in pull down assays were washed and lysed in 20 mM Tris pH 8.0, 300 mM NaCl, 1 mM EDTA, 10% Glycerol, 1% Triton X-100, protease inhibitors (Roche), phosphatase inhibitors (Merck). Lysis was facilitated by passing the lysates through a 19-gauge needle x7 and sonication, x7 pulses, 30 s ON and 30 s OFF, in an ice bath (Decon FS100). […] ProQ diamond and Sypro ruby staining (Thermo Fisher Scientific) of gels was visualised and quantified on a ChemiDoc imaging system (Bio-Rad). […]

[4] = tested on: GST-p12_M63I phosphorylation in 293T cells; assay: Kinase inhibition, GST-p12_M63I phosphorylation (PQ/SR); assay type: cell-based; conditions: 3.5 h with nocodazole and 10 μM MG132, LiCl 40 mM, roscovitine 75 μM, kenpaullone 40 μM
Procedure: as §1, §2

[5] = target: T1, recombinant H3.3 poly-nucleosomes (Homo sapiens, UniProt P62807+P84243+Q93077); assay: Biolayer interferometry, peptide binding to poly-nucleosomes; conditions: BLI; biotinylated peptide on streptavidin sensor; HEPES pH 7.5, 150 mM NaCl, 25°C
T1 construct: purchased Active Motif
Excerpt: To identify whether p12 proteins also interact directly with nucleosomes, we used biolayer interferometry (BLI) to probe the binding of recombinant poly-nucleosomal arrays by p12 CTD peptides (Fig 9). Streptavidin sensor probes coated with biotinylated peptide ligands were immersed in ‘analyte’ solutions containing the in vitro assembled nucleosomal arrays to observe any potential interactions. The p12 CTD peptide sequences used are highlighted in bold in Fig 5C. A peptide carrying the PFV hCBS sequence was included in the assays as a positive control.
The binding of PFV hCBS and p12 CTD peptides to recombinant H3.3 poly-nucleosomes (Active Motif) was measured using biolayer interferometry on an Octet RED system (Pall ForteBio Corp). The peptides were synthesised with a N-terminal biotin tag and GGGG linker. The Mo-MLV, FeLV and GaLV p12 CTD peptide sequences used are highlighted in bold in Fig 5C. A negative control was included that contained an R66A change in the Mo-MLV p12_M63I CTD peptide. Mo-MLV phos p12_M63I CTD was also synthesised with a phosphorylated S61 residue. […] Equilibrium binding amplitudes were determined by exponential least squares curve fitting of the association phase. […] Equilibrium binding constant (Kd) and maximum specific binding (Bmax) were calculated by fitting the data to a non-linear regression model. […]

[6] = tested on: nucleosome binding to immobilised biotinylated hCBS; assay: BLI competition, nucleosome binding to immobilised hCBS; conditions: soluble peptide 100 μM; three technical replicates
Procedure: A negative control was included that contained an R66A change in the Mo-MLV p12_M63I CTD peptide. […] The biotinylated peptides were loaded onto streptavidin biosensors (Pall ForteBio Corp) at 0.5 μg/ml for 120 s in 10 mM HEPES pH 7.5, 150 mM NaCl, 0.005% (v/v) Tween 20. […] Experiments were performed at 25°C and sample plates were agitated at 1000 rpm. […] For competition assays, soluble non-biotin tagged peptides were added to the nucleosomal arrays at 100 μM to inhibit nucleosome binding prior to recording BLI measurements with biotinylated peptide immobilised on sensor probes.

nucleosomes = conditions: cited from earlier work
Excerpt: To identify whether p12 binds to the same nucleosomal docking site as the CBS from PFV Gag, we then tested the ability of p12 CTD peptides to block the binding of nucleosomal arrays to hCBS and vice versa (Fig 9E and 9F).

Compound: O=C1Cc2c([nH]c3ccc(Br)cc23)-c2ccccc2N1 [kenpaullone]
- inhibition of CDK5 [1]: inhibits both enzymes
- inhibition of GSK3 [2]: inhibits both enzymes
- reduction of H2B precipitation by kinase inhibitor [3]: ~ 3.5 fold
- reduction of GST-p12_M63I phosphorylation by kinase inhibitor [4]: ~ 3 fold

Compound: CC[C@H](C)[C@H](NC(=O)[C@@H]1CCCN1C(=O)[C@H](CO)NC(=O)[C@@H]1CCCN1C(=O)[C@H](CC(=O)O)NC(=O)CNC(=O)CNC(=O)CNC(=O)CNC(=O)CCCC[C@@H]1SC[C@@H]2NC(=O)N[C@@H]21)C(=O)N[C@@H](C)C(=O)N[C@@H](CO)C(=O)N[C@@H](CCCNC(=N)N)C(=O)N[C@@H](CC(C)C)C(=O)N[C@@H](CCCNC(=N)N)C(=O)NCC(=O)N[C@@H](CCCNC(=N)N)C(=O)N[C@@H](CCCNC(=N)N)C(=O)N[C@@H](CCC(=O)O)C(=O)N1CCC[C@H]1C(=O)N1CCC[C@H]1C(=O)N[C@H](C(=O)O)C(C)C [non-phosphorylated p12_M63I]
- binding to nucleosomal arrays [5]: clear binding to nucleosomes

Compound: CC[C@H](C)[C@H](NC(=O)[C@@H]1CCCN1C(=O)[C@H](COP(=O)(O)O)NC(=O)[C@@H]1CCCN1C(=O)[C@H](CC(=O)O)NC(=O)CNC(=O)CNC(=O)CNC(=O)CNC(=O)CCCC[C@@H]1SC[C@@H]2NC(=O)N[C@@H]21)C(=O)N[C@@H](C)C(=O)N[C@@H](CO)C(=O)N[C@@H](CCCNC(=N)N)C(=O)N[C@@H](CC(C)C)C(=O)N[C@@H](CCCNC(=N)N)C(=O)NCC(=O)N[C@@H](CCCNC(=N)N)C(=O)N[C@@H](CCCNC(=N)N)C(=O)N[C@@H](CCC(=O)O)C(=O)N1CCC[C@H]1C(=O)N1CCC[C@H]1C(=O)N[C@H](C(=O)O)C(C)C [phosphorylated p12_M63I]
- binding to nucleosomal arrays [5]: clear binding to nucleosomes

Compound: DPSPMASALRGRREPPY [p12_R66A, soluble Mo-MLV p12 CTD peptide with R66A]
- decrease of equilibrium binding of nucleosomes to immobilised hCBS [6]: not hCBS_L539A/R540A or p12_R66A peptides

Compound: NQGGYNAAPRTYQP [hCBS_L539A/R540A, hCBS peptide with L539A/R540A mutations, reference compound]
- binding of hCBS peptides to nucleosomes (nucleosomes): prevent binding of hCBS peptides to nucleosomes
- decrease of equilibrium binding of nucleosomes to immobilised hCBS [6]: not hCBS_L539A/R540A or p12_R66A peptides
